Assay results published in patent US7250157B2, “Dermatological compositions and methods” (Applied Genetics Incorporated Dermatics, priority 1996, dated 2007).
“And” between values parts separate entries of the source, which are not always exact repeats. Equal values may be shown once.

Legend:
[1] = system: Cloudman S91 mouse melanoma cell line; test: Cell count (proliferation, toxicity) of treated S91 cells; format: cell-based; details: concentrations that induce much higher levels of tyrosinase
Procedure: The Cloudman S91 mouse melanoma cell line was obtained from American Type Culture Collection (ATCC). Cells were cultured in Dulbecco's Modified Eagles Medium (DMEM) containing 10% calf serum, 2 mM L-glutamine, 10 U Penicillin/ml and 10 ug Streptomycin/ml according to a previously published protocol (Eller, et al., Proc. Natl. Acad. Sci. 93:1087-92. 1996). For testing propylene glycol and analogues for induction of melanogenesis, S91 cells were plated at 10^5 cells/35 mm dish in 10% calf serum. One day after plating, media was removed and replaced with media containing 2% calf serum and test compounds (Eller, et al., 1996). Cells were cultured for 6 days at 37° C. in 5% CO2 in a humidified incubator. Following this treatment period, cells were examined microscopically and the portion of dedifferentiated and differentiated cells was estimated. Previous studies have shown that dedifferentiated S91 cells have a rounded, spindly appearance while differentiated S91 cells have a flattened, cuboidal, multipolar and dendritic appearance (Orlow, et al., Exp. Cell Res. 191:209-218, 1990).
Following this microscopic examination, cells were detached from dishes by trypsin. The time required for detachment by trypsin was recorded as an additional indicator of the phenotypic effects of test compounds. For each treatment, a subsample of cells was counted to determine the effects of treatment compounds on cellular proliferation. The remainder of cells were used for determination of melanin content. Melanin was extracted from cells by vortexing for 15 min in 1N NaOH. Standards were prepared by dissolving melanin (Sigma) in 1 N NaOH (Eller, et al., 1996). Absorbance of standards and samples was measured at 475 nm. Melanin was expressed as pg melanin/cell.

[2] = system: Normal human epidermal melanocytes (NHEMs); test: Melanin induction in normal human epidermal melanocytes; format: cell-based
Procedure: Normal human epidermal melanocytes (NHEMs) were examined for induction of melanogenesis using cells and media from Clonetics Corporation (San Diego, Calif.). Cells were cultured exactly as specified by the supplier.

[3] = system: Tyrosinase in normal human epidermal melanocytes (NHEM); test: Tyrosinase in NHEM (in situ, cellular, extracellular particulate, media); format: cell-based
Procedure: Tyrosinase was measured in normal human epidermal melanocytes (NHEM) using procedures identical to those described for S91 cells (Example 6), […], 1600×g, or 17,300×g for analysis of tyrosinase activity in the extracellular exported melanosomal particulate fraction, and in the resultant supernatant media fraction. In some cases (Table 11), tyrosinase was also measured by an in situ assay wherein radiolabelled tyrosine was added directly to freshly replaced media of NHEM for a period of 24 hrs following a 5 day treatment period (Abdel-Malek, et al., 1992, J. Cell. Physiol. 150:416-425). […] Both 5 mM 5-NBene-2,2-DM and 25 mM 3,3-M-1,2-BD induced more tyrosinase in each of these assays and fractions than did 1,2-PG. IBMX (3-isobutyl-1-methyl-xanthine) provided as a positive control, induced as much tyrosinase as 5 mM 5-NBene-2,2-DM in the in situ assay, but less in cellular, extracellular particulate and media fractions (Table 11).

[4] = system: Cloudman S91 mouse melanoma cell line; test: Melanin content of S91 cells after treatment with test compound; format: cell-based
Method in brief: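 Mouse S91 melanoma cells seeded at 10^5 cells/35 mm dish in 10% calf serum and cultured with test compound 6 days at 37 °C, 5% CO2. Differentiation scored microscopically, trypsin detachment time recorded, cells counted; melanin measured by absorbance at 475 nm and expressed as pg melanin/cell.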

[5] = system: tyrosinase activity in S91 mouse melanoma cells; test: Induction of tyrosinase activity in S91 cells; details: 300 mM PG-1,2; 25 mM 3,3-M-1,2-BD; 50 mM 1,2-cs-CPD; 5 mM 5-NBene-2,2-DM; 0.5 mM 2,3-Pyd; 0.1 mM IBMX; mean ±SE
Procedure: Compounds were examined for their ability to induce tyrosinase activity in S91 mouse melanoma cells. […] Following treatments, cells were trypsinized, counted by Coulter, pelleted by centrifugation at 1000×g, and analyzed for tyrosinase activity using modifications of previously described procedures (Pomerantz, S. H., 1966, J. Biol. Chem. 241:161-168; Jara, et al., 1988, Pigment Cell Res. 1: 332-339.). Briefly, cell pellets were solubilized by sonicating for 5 seconds in 600 ul 50 mM phosphate buffer pH 6.8 containing 0.5% Triton-X100, followed by vortexing, incubation on ice for 30 min, and then revortexing. From this, 200 ul aliquots were combined with 200 ul of reaction mixture containing either 75 uM tyrosine, 75 uM L-Dopa, and 2 uCi L-[3,5-^3H]Tyrosine in 50 mM NaPO4 pH 6.8 (L-Dopa+), or, 75 uM tyrosine, and 2 uCi L-[3,5-^3H]Tyrosine in 50 mM NaPO4 pH 6.8 (L-Dopa−) and incubated 1 hr at 37° C. Reactions were stopped by addition of 400 ul 10% activated charcoal in 0.1N HCl and incubation on ice for 15 min. This mixture was centrifuged at 17,300×g for 5 min, and 400 ul supernatant was then filtered through a 0.22 uM GV Durapore centifugal filter unit (Millipore) by centrifuging at 17,300×g for 5 min. Filtrate was added to 4 ml Fisher Plus scintillation fluid and counted on a Hewlett Packard scintillation counter. Tyrosinase activity was calculated as dpm/hr/ug protein and dpm/hr/10^3 cells. Each sample was analyzed with and without L-Dopa, a necessary cofactor for tyrosinase (Pomerantz, S. H., 1966, J. Biol. Chem. 241:161-168; McLane, et al., 1987, Biochem. Biophys. Res. Commun. 145:719-725). All reported tyrosinase values are exclusive of counts that occurred in buffer blanks and L-dopa negative aliquots. Protein was determined on aliquots of cell lysate, extracellular particulate lysate or media by the Bradford Coomassie Blue method (Bradford, 1967, Anal. Biochem. 72:248-254) using Bio-Rad Protein Assay Kit I.

[6] = system: American short-haired guinea pigs; test: Topical melanogenesis (pigmentation rating) in guinea pigs; format: in vivo, guinea pig; parameters: Pigmentation Rating / Pigmentation Rating Background Corrected: scale not given here
Procedure: Compounds were tested for melanogenic activity in vivo by application to American short-haired guinea pigs. Treatment sites were created by removal of fur using Nair® brand depilatory. In the Table, the numbers presented are the relative melanogenesis rating (mean ±SE), and are arranged according to the relative location on the animal, with the head being to the left and the tail being to the right. Propylene glycol (PG=13.6M), 2,3-butanediol (2,3-BD=10.95M), and 1,2-cis-cyclopentanediol (1,2-cs-CPD=10.7M) were applied as full strength solutions. 3,3-dimethyl-1,2-butanediol (3,3-M-1,2-BD) was applied as a 4M solution dissolved in ethanol. Two weeks following cessation of treatments, the degree of pigmentation was subjectively rated according to the following scale:
In order to minimize the effects of dimunition of response from head to tails of animals, all future experiments were done using only treatment spots located towards the tails of animals (c and d in Table 7). Deemed as additionally beneficial, in this area of the animal differences of responsiveness to strong and weak inducers of pigmentation, as deduced from cell culture, were greatest. […] Pigmentation ratings were corrected for background (control treatment spots), normalized to 1M to account for the different amounts of each agent applied, and then normalized to results for 1,2-PG (Table 8). […] It is anticipated that further improvements in formulation will additionally improve responsiveness to 5-NBene-2,2-DM and other compounds in this invention.
In FIG. 5, a, b, c and d indicate treatment spots that transverse the anterior-posterior axis along the backs of guinea pigs.

[7] = 5 day treatment, concentrations as E130
[8] = pair of replicates, concentrations as E130
[9] = No Penetration Enhancer, concentrations as E85

CC(C)(C)C(O)CO (stereo not drawn) [3,3-M-1,2-BD, 3,3-dimethyl-1,2-butanediol]
toxicity to S91 cells [1]: nontoxic | Concentration Required for ≧1.5-fold Melanin Induction in NHEMs [2]: 12.5 mM | Tyrosinase In Situ ([3]; 5 day treatment, 300 mM 1,2-PG, 25 mM 3,3-M-1,2-BD, 5 mM 5-NBene-2,2-DM, 0.1 mM IBMX): 20.5 dpm/hr/10^3 Cells and 21.0 dpm/hr/10^3 Cells | Tyrosinase 200 g Partic [3, 7]: 1646 dpm/hr/10^3 Cells and 2226 dpm/hr/10^3 Cells | Tyrosinase Cellular [3, 7]: 11728 dpm/hr/10^3 Cells and 11730 dpm/hr/10^3 Cells | Tyrosinase 17300 g Partic ([3]; Post 200 X g, 5 day treatment, concentrations as E130): 536 dpm/hr/10^3 Cells and 425 dpm/hr/10^3 Cells | Tyrosinase Media ([3]; Post 17300 X g, 5 day treatment, concentrations as E130): 5495 dpm/hr/10^3 Cells and 3056 dpm/hr/10^3 Cells | Tyrosinase 200 g Partic, relative to controls (in parentheses) [3, 8]: (5.64X) | Tyrosinase 17300 g Partic, relative to controls (in parentheses) [3, 8]: (4.20X) | Tyrosinase Cellular, relative to controls (in parentheses) [3, 8]: (1.15X) | Tyrosinase In Situ, relative to controls (in parentheses) [3, 8]: (1.31X) | Tyrosinase Media, relative to controls (in parentheses) [3, 8]: (2.75X) | Concentration Required for ≧2-fold Melanin Induction in S91 Cells [4]: 10 mM | Tyrosinase dpm/hr 10^3 Cells [5]: 1211 ± 38 dpm/hr/10^3 Cells | Tyrosinase dpm/hr ug Protein [5]: 1746 ± 220 dpm/hr/ug Protein | Pigmentation Rating Normalized to 1,2-PG [6, 9]: 18.1 ± 6.8 | Pigmentation Rating Normalized to 1M [6, 9]: 0.272 ± 0.102 | Pigmentation Rating Background Corrected ([6]; No Penetration Enhancer, corrected for Nair control, concentrations as E85): 1.09 ± 0.41 | Pigmentation Rating ([6]; No Penetration Enhancer, sites c and d, 13.61M 1,2-PG, 11.0M 2,3-M-2,3-BD, 11.3M 2-M-1,3-PG, 8.7M 1,2-cs-CPD, 4.0M 3,3-M-1,2-BD): 1.17 ± 0.44 | greater melanogenesis than PG applied at similar body locations ([6]; guinea pig, 5 days): 4.5 fold | relative melanogenesis rating (mean ±SE), scale 0-4 ([6]; site c, 25 μl twice per day for 5 days, rated two weeks after, full strength, 3,3-M-1,2-BD 4M in ethanol): 1.16 ± 0.66^2
